Paper PMC4632759, “Studies on [5,6]-Fused Bicyclic Scaffolds Derivatives as Potent Dual B-Raf^V600E/KDR Inhibitors Using Docking and 3D-QSAR Approaches” (International Journal of Molecular Sciences, 2015)
Read-outs that look alike come from different tables or passages of the source.

How the values were obtained:
[1] = molecular target: VEGFR2 (Homo sapiens, UniProt P35968); set-up: method as in PMID 22376051, PMID 22763369, PMID 22883026, PMID 23906342; conditions: literature values used as 3D-QSAR data set; read-out: Kinase IC50 VEGFR2; cited from earlier work
[2] = tested on: C-Raf; set-up: method as in PMID 22376051, PMID 22763369, PMID 22883026, PMID 23906342; conditions: cited from earlier work
[3] = molecular target: T1, B-Raf^V600E (Homo sapiens, UniProt P15056, V600E); set-up: method as in PMID 22376051, PMID 22763369, PMID 22883026, PMID 23906342; conditions: literature values used as 3D-QSAR data set; read-out: Kinase IC50 B-Raf^V600E; cited from earlier work
[4] = tested on: wild-type B-Raf; set-up: method as in PMID 22376051, PMID 22763369, PMID 22883026, PMID 23906342; conditions: cited from earlier work
[5] = molecular target: T1, B-Raf^V600E; test: B-Raf^V600E inhibitory activity of designed new compounds (preliminary pharmacological evaluation); format: biochemical; conditions: for IC50: preliminary biological tests
From the text: (§1) The designed molecules were synthesized and the preliminary pharmacological evaluation would be used to verify the biological activity and our design strategy.

[6] = molecular target: KDR (Homo sapiens, UniProt P35968); test: KDR inhibitory activity of designed new compounds (preliminary pharmacological evaluation); format: biochemical; conditions: for IC50: preliminary biological tests
From the text: as §1

T1 sequence (P15056 whole entry V600E): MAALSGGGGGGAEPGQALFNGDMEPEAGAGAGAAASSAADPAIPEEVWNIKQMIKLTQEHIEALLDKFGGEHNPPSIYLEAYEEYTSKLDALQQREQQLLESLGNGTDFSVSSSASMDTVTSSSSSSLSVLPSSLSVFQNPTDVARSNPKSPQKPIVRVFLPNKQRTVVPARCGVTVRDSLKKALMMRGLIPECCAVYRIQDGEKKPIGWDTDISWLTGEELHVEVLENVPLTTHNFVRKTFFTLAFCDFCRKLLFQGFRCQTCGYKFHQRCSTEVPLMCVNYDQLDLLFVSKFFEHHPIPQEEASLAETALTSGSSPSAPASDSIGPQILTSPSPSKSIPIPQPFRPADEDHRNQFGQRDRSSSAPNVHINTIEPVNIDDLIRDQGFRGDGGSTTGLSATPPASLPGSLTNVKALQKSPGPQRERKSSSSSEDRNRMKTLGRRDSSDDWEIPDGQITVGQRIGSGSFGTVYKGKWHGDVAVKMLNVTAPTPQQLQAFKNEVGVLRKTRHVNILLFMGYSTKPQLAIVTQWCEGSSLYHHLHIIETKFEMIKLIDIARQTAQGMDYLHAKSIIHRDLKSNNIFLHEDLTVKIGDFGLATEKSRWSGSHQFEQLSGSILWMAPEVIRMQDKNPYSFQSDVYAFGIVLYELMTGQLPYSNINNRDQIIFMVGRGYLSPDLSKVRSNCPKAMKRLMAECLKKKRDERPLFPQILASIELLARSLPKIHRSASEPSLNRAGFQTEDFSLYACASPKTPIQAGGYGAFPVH
Chain of KDR (P35968 20-1356): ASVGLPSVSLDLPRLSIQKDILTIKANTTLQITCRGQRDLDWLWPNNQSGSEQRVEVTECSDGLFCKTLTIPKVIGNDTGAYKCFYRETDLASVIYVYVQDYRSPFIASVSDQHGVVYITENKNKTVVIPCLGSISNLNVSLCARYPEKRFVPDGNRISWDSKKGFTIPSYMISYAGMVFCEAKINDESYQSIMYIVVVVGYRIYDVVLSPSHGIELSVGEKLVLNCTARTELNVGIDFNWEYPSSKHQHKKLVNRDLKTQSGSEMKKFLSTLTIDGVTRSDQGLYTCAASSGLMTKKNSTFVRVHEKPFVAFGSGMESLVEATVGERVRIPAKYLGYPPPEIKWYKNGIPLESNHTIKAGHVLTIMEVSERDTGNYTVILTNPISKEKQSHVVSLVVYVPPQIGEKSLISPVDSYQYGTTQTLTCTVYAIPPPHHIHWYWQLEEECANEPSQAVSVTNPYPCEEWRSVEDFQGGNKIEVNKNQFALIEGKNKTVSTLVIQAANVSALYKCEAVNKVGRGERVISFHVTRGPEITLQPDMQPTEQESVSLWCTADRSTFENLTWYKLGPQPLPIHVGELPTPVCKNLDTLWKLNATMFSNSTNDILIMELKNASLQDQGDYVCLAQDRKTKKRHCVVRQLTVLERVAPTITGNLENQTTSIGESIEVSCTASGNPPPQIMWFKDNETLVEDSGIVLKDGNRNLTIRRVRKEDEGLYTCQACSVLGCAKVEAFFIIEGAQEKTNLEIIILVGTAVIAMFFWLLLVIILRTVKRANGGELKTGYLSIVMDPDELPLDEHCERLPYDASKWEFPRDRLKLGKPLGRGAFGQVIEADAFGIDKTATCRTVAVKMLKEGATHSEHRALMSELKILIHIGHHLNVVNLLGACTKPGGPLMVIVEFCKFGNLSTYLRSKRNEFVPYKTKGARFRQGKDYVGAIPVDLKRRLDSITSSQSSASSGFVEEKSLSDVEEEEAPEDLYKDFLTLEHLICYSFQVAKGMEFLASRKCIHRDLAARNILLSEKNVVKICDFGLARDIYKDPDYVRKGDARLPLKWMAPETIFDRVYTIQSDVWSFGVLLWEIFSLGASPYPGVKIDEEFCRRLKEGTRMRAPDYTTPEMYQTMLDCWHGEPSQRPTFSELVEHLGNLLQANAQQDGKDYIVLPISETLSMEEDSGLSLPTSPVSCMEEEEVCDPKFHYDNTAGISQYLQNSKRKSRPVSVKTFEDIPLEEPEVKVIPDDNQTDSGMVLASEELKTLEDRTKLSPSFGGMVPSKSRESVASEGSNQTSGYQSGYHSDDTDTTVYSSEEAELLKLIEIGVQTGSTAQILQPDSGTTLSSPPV
Chain of VEGFR2 (P35968 806-1171): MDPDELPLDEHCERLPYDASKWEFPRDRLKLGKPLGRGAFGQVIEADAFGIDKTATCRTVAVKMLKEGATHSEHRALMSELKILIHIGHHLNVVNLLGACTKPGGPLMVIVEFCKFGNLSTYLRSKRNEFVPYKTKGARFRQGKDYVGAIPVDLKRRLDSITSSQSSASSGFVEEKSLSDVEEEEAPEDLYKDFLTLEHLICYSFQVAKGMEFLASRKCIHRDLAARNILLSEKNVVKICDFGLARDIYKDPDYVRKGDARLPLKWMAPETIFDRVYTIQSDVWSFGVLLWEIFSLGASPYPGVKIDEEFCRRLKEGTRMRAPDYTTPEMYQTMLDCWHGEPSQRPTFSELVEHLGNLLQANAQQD

Compound | IC50 [5] [µM] | Actual pIC50 KDR [6] | IC50 [6] [µM] | Actual pIC50 B-Raf [5] | IC50 [1] [µM] | IC50 [2] [µM] | IC50 [3] [µM] | IC50 [4] [µM]
N#CC1(c2cccc(C(=O)Nc3cc(Oc4ccc5nc(NC(=O)C6CC6)sc5n4)ccc3F)c2Cl)CC1 [Compound 0JA] |  |  |  |  | 0.0022 | 0.0015 | 0.007 | 0.012
CNC(=O)c1nc2ccc(C(=O)c3cccc(NC(=O)c4cccc(F)c4)c3)cc2[nH]1 [Compound D4] | > 5 | 6.05 | 0.89 |  |  |  |  | 
CNC(=O)c1nc2ccc(C(=O)c3cccc(NC(=O)c4ccc(Cl)c(Cl)c4)c3)cc2[nH]1 [Compound D5] | 0.15 |  | > 5 | 6.82 |  |  |  | 

Second part, led by results:

IC50 [5] [µM] | Actual pIC50 KDR [6] | IC50 [6] [µM] | Actual pIC50 B-Raf [5] | Compound | IC50 [1] [µM] | IC50 [2] [µM] | IC50 [3] [µM] | IC50 [4] [µM]
> 5 | 6.41 | 0.39 |  | CCNC(=O)c1nc2ccc(C(=O)c3cccc(NC(=O)c4cccc(C(F)(F)F)c4)c3)cc2[nH]1 [Compound D6] |  |  |  | 
> 5 |  | 1.52 |  | CC(C)NC(=O)c1nc2ccc(C(=O)c3cccc(NC(=O)Nc4cccc(C(F)(F)F)c4)c3)cc2[nH]1 [Compound D7] |  |  |  | 
> 5 |  | 1.32 |  | O=C(Nc1cccc(C(=O)c2ccc3nc(C(=O)NC4CC4)[nH]c3c2)c1)Nc1cccc(C(F)(F)F)c1 [Compound D8] |  |  |  | 
